# Experiments:
# SCCHN = settings: monotherapy studies in SCCHN, ITT population, standard of care drugs; cited from earlier work
# recurrent SCCHN = assay: Phase 3 pivotal trial T301 (ADVEXIN or methotrexate), tumor response and survival; type: in vivo, human
# Excerpt: Favorable response to the therapy may comprise reduction in tumor size or burden, blocking of tumor growth, reduction in tumor-associated pain, reduction in tumor-associated pathology, reduction in tumor-associated symptoms, tumor non-progression, increased disease free interval, increased time to progression, induction of remission, reduction of metastasis, or increased patient survival. Particularly, “tumor response” may refer to tumor growth control (tumor growth control (TGC) defined by complete (CR) and partial (PR) reductions in size of >50% or Stable Disease (SD); TGC=CR+PR+SD) or reductions in tumor size of >10%.
# Table 2 summarizes the results of these analyses and provides the corresponding data for patients treated with methotrexate in the pivotal Phase 3 T301 study.
# SCCHN patients = assay: Safety data, Phase III SCCHN study (ADVEXIN vs methotrexate)
# αv/β3 vascular integrin [1] = settings: mice, without harming them; cited from earlier work
# αv/β3 vascular integrin [2] = molecular target: T1, αv/β3 vascular integrin (Homo sapiens, UniProt P05106+P06756); settings: Phase II clinical trials in humans, without harmful side effects; cited from earlier work
# T1 construct: the new blood vessels in tumors express a vascular integrin, designated αv/β3; host or cells: tumour blood vessels of human patients
# [3] = T301, p53 gene status wild type
# [4] = T301 methotrexate ITT population
# T1 sequence (P06756 31-889 limits assumed): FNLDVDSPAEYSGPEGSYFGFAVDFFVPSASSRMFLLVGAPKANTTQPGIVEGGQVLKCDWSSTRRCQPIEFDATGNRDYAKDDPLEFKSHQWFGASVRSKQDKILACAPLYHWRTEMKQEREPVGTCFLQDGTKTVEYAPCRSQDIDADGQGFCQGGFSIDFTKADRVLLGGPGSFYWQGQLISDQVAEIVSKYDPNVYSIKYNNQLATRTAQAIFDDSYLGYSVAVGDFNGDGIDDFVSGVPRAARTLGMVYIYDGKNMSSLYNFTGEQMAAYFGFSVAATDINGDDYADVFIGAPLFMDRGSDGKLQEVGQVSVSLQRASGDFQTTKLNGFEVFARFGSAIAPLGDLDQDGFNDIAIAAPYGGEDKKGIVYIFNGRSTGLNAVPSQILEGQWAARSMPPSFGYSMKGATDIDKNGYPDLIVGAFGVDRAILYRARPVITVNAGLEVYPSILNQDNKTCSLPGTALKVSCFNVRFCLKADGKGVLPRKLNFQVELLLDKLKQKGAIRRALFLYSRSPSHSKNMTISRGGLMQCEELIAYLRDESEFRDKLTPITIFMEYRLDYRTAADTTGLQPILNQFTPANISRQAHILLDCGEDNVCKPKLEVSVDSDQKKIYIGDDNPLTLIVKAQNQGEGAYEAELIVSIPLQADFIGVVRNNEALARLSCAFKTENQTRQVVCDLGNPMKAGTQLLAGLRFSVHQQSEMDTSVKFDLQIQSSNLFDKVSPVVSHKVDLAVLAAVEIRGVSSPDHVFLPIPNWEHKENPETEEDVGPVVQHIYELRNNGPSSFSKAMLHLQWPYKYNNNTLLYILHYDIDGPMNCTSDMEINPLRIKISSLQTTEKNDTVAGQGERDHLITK
# T1 sequence (P06756 891-1048 limits assumed): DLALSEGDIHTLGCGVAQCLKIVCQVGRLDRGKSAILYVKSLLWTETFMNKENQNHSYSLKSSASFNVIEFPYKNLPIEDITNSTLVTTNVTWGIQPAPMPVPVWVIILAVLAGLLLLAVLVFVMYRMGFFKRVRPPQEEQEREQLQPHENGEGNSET
# T1 sequence (P05106 27-788): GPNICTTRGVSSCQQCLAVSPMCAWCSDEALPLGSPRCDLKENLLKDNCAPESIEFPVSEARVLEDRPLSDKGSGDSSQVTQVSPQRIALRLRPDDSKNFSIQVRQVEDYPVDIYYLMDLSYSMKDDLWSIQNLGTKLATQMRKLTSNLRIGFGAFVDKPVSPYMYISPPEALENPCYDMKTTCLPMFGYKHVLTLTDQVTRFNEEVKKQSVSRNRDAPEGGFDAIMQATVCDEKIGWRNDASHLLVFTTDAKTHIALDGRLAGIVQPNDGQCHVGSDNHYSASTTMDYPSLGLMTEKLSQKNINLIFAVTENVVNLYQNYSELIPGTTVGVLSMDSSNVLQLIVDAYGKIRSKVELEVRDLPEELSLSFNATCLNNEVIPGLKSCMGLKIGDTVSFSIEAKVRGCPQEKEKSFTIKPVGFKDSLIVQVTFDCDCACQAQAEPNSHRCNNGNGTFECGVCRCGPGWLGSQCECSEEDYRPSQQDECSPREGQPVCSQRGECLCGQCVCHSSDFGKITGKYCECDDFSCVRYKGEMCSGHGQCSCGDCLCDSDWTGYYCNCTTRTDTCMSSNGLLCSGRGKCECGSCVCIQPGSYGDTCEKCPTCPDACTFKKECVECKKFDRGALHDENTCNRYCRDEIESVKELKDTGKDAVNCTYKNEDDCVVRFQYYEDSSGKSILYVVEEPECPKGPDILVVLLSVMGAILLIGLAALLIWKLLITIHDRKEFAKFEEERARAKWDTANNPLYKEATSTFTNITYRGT
molecule,measurement,setting,value
C#Cc1cccc(Nc2ncnc3cc(OCCOC)c(OCCOC)cc23)c1 [Erlotinib],Median Overall Survival,SCCHN,5.8 months
Carboplatin/5FU,Median Overall Survival,SCCHN,5.0 months
CN(Cc1cnc2nc(N)nc(N)c2n1)c1ccc(C(=O)N[C@@H](CCC(=O)O)C(=O)O)cc1 [Methotrexate],Median Overall Survival,SCCHN,4.2-5.6 months
same,"Median survival, patients with p53 profiles favorable for ADVEXIN efficacy",recurrent SCCHN; T301,4.3 months
same,"Median survival, patients with p53 profiles unfavorable for ADVEXIN efficacy",recurrent SCCHN; T301,6.0 months
same,"Tumor Growth Control, patients with TGC / patients","recurrent SCCHN; T301, p53 gene status mutated",13/15
same,"Tumor Growth Control, percentage of patients","recurrent SCCHN; T301, p53 gene status mutated",87%
same,"Tumor Growth Control, patients with TGC / patients",recurrent SCCHN; [3],11/20
same,"Tumor Growth Control, percentage of patients",recurrent SCCHN; [3],55%
same,"Median Survival, TGC Non-Responders",recurrent SCCHN; T301 ITT population,3.8 months
same,"Median Survival, TGC Responders",recurrent SCCHN; T301 ITT population,7.5 months
same,% Tumor Growth Control,"recurrent SCCHN; T301 ITT population, TGC = CR+PR+SD",53.3%
same,% Tumor Response (≥10% tumor reduction),recurrent SCCHN; [4],18.3%
same,% Tumor Response (≥50% tumor reduction),recurrent SCCHN; [4],11.7%
same,"Median Survival, Non-Responders (≥10% tumor reduction criterion)",recurrent SCCHN; [4],4.3 months
same,"Median Survival, Non-Responders (≥50% tumor reduction criterion)",recurrent SCCHN; [4],4.6 months
same,"Median Survival, Responders (≥10% tumor reduction)",recurrent SCCHN; [4],11.9 months
same,"Median Survival, Responders (≥50% tumor reduction)",recurrent SCCHN; [4],14.4 months
same,Grade 3 or 4 laboratory event: leukopenia,SCCHN patients; Phase III SCCHN study,12.1%
same,Grade 3 or 4 laboratory event: lymphopenia,SCCHN patients; Phase III SCCHN study,25.6%
same,Grade 3 or 4 laboratory event: neutropenia,SCCHN patients; Phase III SCCHN study,12.1%
same,Incidence of Grade 3 or 4 laboratory events,SCCHN patients; Phase III SCCHN study,39.5%
same,Body weight loss over time,"SCCHN patients; Phase III SCCHN study, compared with ADVEXIN patients",more body weight loss
same,Deaths attributed to treatment,"SCCHN patients; Phase III recurrent SCCHN study, due to leukopenia",one death
same,"Incidences of stomatitis, nausea, pneumonia, paresthesia, leucopenia and neutropenia","SCCHN patients; Phase III study, relative to ADVEXIN",higher incidences
Cisplatin/5FU,Median Overall Survival,SCCHN,5.6-6.4 months
CC(=O)O[C@H]1C(=O)[C@@]2(C)[C@H]([C@H](OC(=O)c3ccccc3)[C@]3(O)C[C@H](OC(=O)[C@H](O)[C@@H](NC(=O)c4ccccc4)c4ccccc4)C(C)=C1C3(C)C)[C@]1(OC(C)=O)CO[C@@H]1C[C@@H]2O [Paclitaxel],Median Overall Survival,SCCHN,4.4 months
CC(=O)O[C@@]12CO[C@@H]1C[C@H](O)[C@@]1(C)C(=O)[C@H](O)C3=C(C)[C@@H](OC(=O)[C@H](O)[C@@H](NC(=O)OC(C)(C)C)c4ccccc4)C[C@@](O)([C@@H](OC(=O)c4ccccc4)[C@H]21)C3(C)C [Docetaxel],Median Overall Survival,SCCHN,6.6 months
"Vitaxin®: a monoclonal antibody directed against the αv/β3 vascular integrin (antibody, chains of the INN, looked up, V domains shown) VH: QVQLVESGGGVVQPGRSLRLSCAASGFTFSSYDMSWVRQAPGKGLEWVAKVSSGGGSTYYLDTVQGRFTISRDNSKNTLYLQMNSLRAEDTAVYYCARHLHGSFASWGQGTTVTVSS VL: EIVLTQSPATLSLSPGERATLSCQASQSISNFLHWYQQRPGQAPRLLIRYRSQSISGIPARFSGSGSGTDFTLTISSLEPEDFAVYYCQQSGSWPLTFGGGTKVEIK",Effect on tumors,αv/β3 vascular integrin [1],shrinks tumors
same,Effect on solid tumors,αv/β3 vascular integrin [2],some promise in shrinking solid tumors

# Reference: patent US10883993B2, “P53 biomarkers” (MULTIVIR INC., priority 2008, dated 2021)
